Patent US20260265199A1, “CRYSTALLINE FORMS OF (R)-2-AMINO-5-(4-(2-(3,5-DIFLUOROPHENYL)-2-HYDROXYACETAMIDO)-2-METHYLPHENYL)-N-ISOPROPYLNICOTINAMIDE AND METHODS FOR USING THE SAME” (HIBERCELL, INC., priority 2023, published 2026)
Structures can show the parent of a compound that is named as a salt.

Assay: Phase 1a study: pharmacokinetics after oral BID dosing in subjects with advanced solid tumors
Type: in vivo, human
Set-up: Increase in mean: scale not given here
Method: This example describes a first in human, Phase 1a, multi-center, open-label study to establish the maximum tolerated dose (MTD) and evaluate the safety and tolerability of oral dosing of Form A of the hemi-fumarate salt of the compound of formula (I) (Example 11) in a dose-escalating fashion. Form A of the hemi-fumarate salt was orally administered BID every day with food or within 30 minutes of completing a meal, starting at 25 mg, with doses escalating to 50, 100, 200, 400, 600, and 900 mg BID as safety allows for each 3-week treatment cycle.
Up to 36 qualified subjects at 3 to 5 US sites, who have specific tumor types of renal cell carcinoma (RCC), gastric cancer (GC), metastatic breast cancer (MBC), small cell lung cancer (SCLC), and other solid tumors (e.g., non-small cell lung cancer, colorectal cancer, carcinoma of unknown primary) with the exception of rapidly progressing neoplasms (e.g., pancreatic cancer, glioblastoma, hepatocellular carcinoma) received Form A of the hemi-fumarate salt. Every effort was made to ensure approximately 50% of all subjects enrolled were subjects with RCC and GC. The starting dose level was 25 mg twice daily (BID), escalating to 50, 100, and 200 mg BID as safety allows, following the Bayesian Optimal Interval (BOIN) design. The safety monitoring committee (SMC) evaluated the dose-limiting toxicities (DLTs) and cumulative safety and PK data at the end of each cohort. Based on the SMC recommendations after a comprehensive review of PK and safety data for 200 mg BID dose, higher dose levels were evaluated, starting with 400 mg BID. The dose escalated to 600 mg and then 900 mg following the BOIN design starting with 1 subject at each escalated dose, until the MTD was reached or the sponsor or SMC declares the dose most appropriate for clinical development. This Phase 1a will be expanded into a Phase 1b/2a study through a protocol amendment and will then assess the dose and tumor type(s) selected in Phase 1a as the most appropriate for further clinical development. Subjects were dosed until unacceptable toxicity, disease progression per immune-related Response Evaluation Criteria in Solid Tumors (iRECIST), subject withdrawal, any other administrative reasons, or after 2 years of treatment, whichever occurs first. Efficacy was assessed via Response Evaluation Criteria in Solid Tumors 1.1 (RECIST 1.1); computed tomography (CT) scans were conducted every 6 weeks. Safety, including occurrence of dose-limiting toxicities (DLTs), pharmacokinetics (PK), and biomarker parameters were also assessed.
Form A of the hemi-fumarate salt was orally administered BID with food or within 30 minutes of completing a meal, starting at 25 mg, with doses escalating to 50, 100, 200, 400, 600 and 900 mg BID as safety allowed. Up to 24 subjects were enrolled to ensure 12 subjects completed the study at the estimated MTD of Form A of the hemi-fumarate salt. Dosing occurred in 3-week cycles. Subjects spent Cycle 1/Day 1 (C1D1) in the clinic followed by an overnight stay for safety monitoring and PK sampling. Subjects were hospitalized for administration of first 3 doses: CID1 am and pm doses, and Cycle 1/Day 2 (C1D2) am dose; on Days 8, 15, and 21 the am dose was taken in the clinic after the planned PK samples. All other doses were self administered at home.
Results of Cohorts 1 to 6 the study are detailed in Tables 47-50 below.

[1] = 25 mg single oral dose, Cycle 1 Day 1, geometric mean, N = 3
[2] = 25 mg twice daily oral, Cycle 1 Day 21, geometric mean, N = 3
[3] = 50 mg single oral dose, Cycle 1 Day 1, geometric mean, N = 3
[4] = 50 mg twice daily oral, Cycle 1 Day 21, geometric mean, N = 3
[5] = 100 mg single oral dose, Cycle 1 Day 1, geometric mean, N = 4
[6] = 100 mg twice daily oral, Cycle 1 Day 21, geometric mean, N = 3
[7] = 200 mg single oral dose, Cycle 1 Day 1, geometric mean, N = 5
[8] = 200 mg twice daily oral, Cycle 1 Day 21, geometric mean, N = 4
[9] = 300 mg single oral dose, Cycle 1 Day 1, geometric mean, N = 4
[10] = 300 mg twice daily oral, Cycle 1 Day 21, point estimate, N = 1
[11] = 400 mg single oral dose, Cycle 1 Day 1, geometric mean, N = 3
[12] = 400 mg twice daily oral, Cycle 1 Day 21, geometric mean, N = 2
[13] = 600 mg single oral dose, Cycle 1 Day 1, point estimate, N = 1
[14] = 600 mg twice daily oral, Cycle 1 Day 21, point estimate, N = 1

Cc1cc(NC(=O)[C@H](O)c2cc(F)cc(F)c2)ccc1-c1cnc(N)c(C(=O)NC(C)C)c1 [Form A of the hemi-fumarate salt, (R)-2-amino-5-(4-(2-(3,5-difluorophenyl)-2-hydroxyacetamido)-2-methylphenyl)-N-isopropylnicotinamide]
% AUCextrap [1]: 46.8% | CL/F [1]: 11.4 L/h | DAUC0-12 [1]: 34.0 ng·h/mL/mg | DAUC0-last [1]: 34.0 ng·h/mL/mg | DCmax [1]: 4.79 ng/mL/mg | tlast (25 mg single oral dose, Cycle 1 Day 1, median, N = 3): 12.00 h | ARAUC [2]: 4.84 | CL/F [2]: 6.08 L/h | Ctrough [2]: 359 ng/mL | DAUC0-last [2]: 164 ng·h/mL/mg | DAUC0-τ [2]: 164 ng·h/mL/mg | DCmax [2]: 21.5 ng/mL/mg | % AUCextrap [3]: 51.8% | CL/F [3]: 8.85 L/h | DAUC0-12 [3]: 41.8 ng·h/mL/mg | DAUC0-last [3]: 41.8 ng·h/mL/mg | DCmax [3]: 4.87 ng/mL/mg | tlast (50 mg single oral dose, Cycle 1 Day 1, median, N = 3): 12.00 h | ARAUC [4]: 4.34 | CL/F [4]: 5.51 L/h | Ctrough [4]: 780 ng/mL | DAUC0-last [4]: 181 ng·h/mL/mg | DAUC0-τ [4]: 181 ng·h/mL/mg | DCmax [4]: 19.6 ng/mL/mg | Increase in mean (50 mg vs preceding dose level (25 mg), single oral dose, Cycle 1 Day 1): 2.46 | Increase in mean (50 mg vs preceding dose level (25 mg), twice daily oral, Cycle 1 Day 21): 2.21 | DAUC0-12 [5]: 28.0 ng·h/mL/mg | DAUC0-last [5]: 19.3 ng·h/mL/mg | DCmax [5]: 3.80 ng/mL/mg | tlast (100 mg single oral dose, Cycle 1 Day 1, median, N = 4): 12.00 h | ARAUC [6]: 4.19 | CL/F [6]: 8.53 L/h | Ctrough [6]: 777 ng/mL | DAUC0-last [6]: 117 ng·h/mL/mg | DAUC0-τ [6]: 117 ng·h/mL/mg | DCmax [6]: 13.1 ng/mL/mg | Increase in mean (100 mg vs preceding dose level (50 mg), single oral dose, Cycle 1 Day 1): 1.34 | Increase in mean (100 mg vs preceding dose level (50 mg), twice daily oral, Cycle 1 Day 21): 1.29 | % AUCextrap [7]: 58.7% | CL/F [7]: 11.1 L/h | DAUC0-12 [7]: 29.0 ng·h/mL/mg | DAUC0-last [7]: 29.0 ng·h/mL/mg | DCmax [7]: 4.19 ng/mL/mg | tlast (200 mg single oral dose, Cycle 1 Day 1, median, N = 5): 12.00 h | ARAUC [8]: 4.90 | CL/F [8]: 7.36 L/h | Ctrough [8]: 1860 ng/mL | DAUC0-last [8]: 136 ng·h/mL/mg | DAUC0-τ [8]: 136 ng·h/mL/mg | DCmax [8]: 14.9 ng/mL/mg | Increase in mean (200 mg vs preceding dose level (100 mg), single oral dose, Cycle 1 Day 1): 2.07 | Increase in mean (200 mg vs preceding dose level (100 mg), twice daily oral, Cycle 1 Day 21): 2.32 | % AUCextrap [9]: 30.5% | CL/F [9]: 62.4 L/h | DAUC0-12 [9]: 28.7 ng·h/mL/mg | DAUC0-last [9]: 28.7 ng·h/mL/mg | DCmax [9]: 3.80 ng/mL/mg | tlast (300 mg single oral dose, Cycle 1 Day 1, median, N = 4): 12.00 h | ARAUC [10]: 2.87 | CL/F [10]: 10.5 L/h | Ctrough [10]: 1770 ng/mL | DAUC0-last [10]: 94.8 ng·h/mL/mg | DAUC0-τ [10]: 94.8 ng·h/mL/mg | DCmax [10]: 10.1 ng/mL/mg | Increase in mean (300 mg vs preceding dose level (200 mg), single oral dose, Cycle 1 Day 1): 1.48 | Increase in mean (300 mg vs preceding dose level (200 mg), twice daily oral, Cycle 1 Day 21): 1.05 | % AUCextrap [11]: 33.6% | CL/F [11]: 24.5 L/h | DAUC0-12 [11]: 9.58 ng·h/mL/mg | DAUC0-last [11]: 9.58 ng·h/mL/mg | DCmax [11]: 1.62 ng/mL/mg | tlast (400 mg single oral dose, Cycle 1 Day 1, min-max, N = 3): (12.00-12.00) h | ARAUC [12]: 5.15 | CL/F [12]: 7.82 L/h | Ctrough [12]: 3060 ng/mL | DAUC0-last [12]: 77.0 ng·h/mL/mg | DAUC0-τ [12]: 128 ng·h/mL/mg | DCmax [12]: 9.20 ng/mL/mg | Increase in mean (400 mg vs preceding dose level (300 mg), single oral dose, Cycle 1 Day 1): 0.44 | Increase in mean (400 mg vs preceding dose level (300 mg), twice daily oral, Cycle 1 Day 21): 1.80 | DAUC0-12 [13]: 19.4 ng·h/mL/mg | DAUC0-last [13]: 19.4 ng·h/mL/mg | DCmax [13]: 2.43 ng/mL/mg | tlast [13]: 12.00 h | ARAUC [14]: 5.22 | CL/F [14]: 9.87 L/h | Ctrough [14]: 5680 ng/mL | DAUC0-last [14]: 101 ng·h/mL/mg | DAUC0-τ [14]: 101 ng·h/mL/mg | DCmax [14]: 9.98 ng/mL/mg
